Source: US9580390B2, “Indazole compounds as kinase inhibitors and method of treating cancer with same” (University Health Network, priority 2011, dated 2017)

Tests used:
[1] = biological target: T1, human TTK (Homo sapiens, UniProt P33981); assay: TTK inhibition assay (indirect ELISA); format: biochemical; conditions: read-out: TTK IC50 Range
T1 construct: amino terminal GST fusion of full length human TTK; purchased Invitrogen
T1 sequence (P33981 1-857): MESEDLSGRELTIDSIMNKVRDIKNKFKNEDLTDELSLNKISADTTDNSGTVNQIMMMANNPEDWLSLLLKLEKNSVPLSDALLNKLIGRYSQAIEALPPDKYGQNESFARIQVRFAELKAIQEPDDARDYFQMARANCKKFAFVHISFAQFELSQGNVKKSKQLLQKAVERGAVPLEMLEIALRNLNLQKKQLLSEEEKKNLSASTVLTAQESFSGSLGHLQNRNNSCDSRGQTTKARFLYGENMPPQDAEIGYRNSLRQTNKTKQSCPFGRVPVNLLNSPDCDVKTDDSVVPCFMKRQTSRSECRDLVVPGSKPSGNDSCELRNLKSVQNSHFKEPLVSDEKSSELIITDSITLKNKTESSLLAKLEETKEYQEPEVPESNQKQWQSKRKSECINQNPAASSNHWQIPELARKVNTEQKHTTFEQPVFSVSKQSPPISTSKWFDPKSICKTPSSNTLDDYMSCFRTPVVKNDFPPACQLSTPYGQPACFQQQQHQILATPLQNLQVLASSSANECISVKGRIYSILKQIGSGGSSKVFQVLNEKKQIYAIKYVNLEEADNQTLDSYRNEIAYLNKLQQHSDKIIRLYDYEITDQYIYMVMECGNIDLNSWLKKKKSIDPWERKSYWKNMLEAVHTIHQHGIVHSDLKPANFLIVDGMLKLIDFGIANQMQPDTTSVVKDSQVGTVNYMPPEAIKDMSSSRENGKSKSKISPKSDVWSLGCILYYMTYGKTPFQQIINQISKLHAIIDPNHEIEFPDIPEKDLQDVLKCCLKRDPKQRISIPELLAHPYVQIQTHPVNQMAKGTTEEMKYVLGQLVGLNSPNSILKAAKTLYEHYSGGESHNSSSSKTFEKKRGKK

[2] = test system: colon cancer cells (HCT116); assay: Cancer cell line growth inhibition (SRB assay); format: cell-based; conditions: Homo sapiens, HCT-116; HCT116 colon cancer cells, SRB assay; read-out: Cancer Cell Line GI50 Range HCT116
[3] = test system: ovarian cancer cells (PA-1); assay: Cancer cell line growth inhibition (SRB assay); format: cell-based; conditions: PA-1 ovarian cancer cells, SRB assay; read-out: Cancer Cell Line GI50 Range PA-1

IC50 [1] [nM] | GI50 [2] [nM] | GI50 [3] [nM] | Structure (SMILES)
< 100 |  |  | CC(C)[C@H](NC(=O)c1ccc2[nH]nc(-c3ccc(N4CC(N5CCOCC5)C4)cc3)c2c1)c1ncccc1F [Example A522, (S)-N-(1-(3-fluoropyridin-2-yl)-2-methylpropyl)-3-(4-(3-morpholinoazetidin-1-yl)phenyl)-1H-indazole-5-carboxamide]
> 500 | > 500 |  | CN(C)C1(CNC(=O)c2ccc3[nH]nc(-c4ccc(N5CCOCC5)cc4)c3c2)CCCCC1 [Example A450, N-((1-(dimethylamino)cyclohexyl)methyl)-3-(4-morpholinophenyl)-1H-indazole-5-carboxamide]
< 100 |  |  | CC(C)C[C@H](NC(=O)c1ccc2[nH]nc(-c3ccc(N4CC(N5CCOCC5)C4)cc3)c2c1)c1ccccc1 [Example A521, (S)-N-(3-methyl-1-phenylbutyl)-3-(4-(3-morpholinoazetidin-1-yl)phenyl)-1H-indazole-5-carboxamide]
> 500 |  |  | CCN(C(=O)Nc1ccc2[nH]nc(-c3ccc(N4CCOCC4)cc3)c2c1)c1ccccc1 [Example A72, 1-ethyl-3-(3-(4-morpholinophenyl)-1H-indazol-5-yl)-1-phenylurea]
> 500 |  |  | CN1CCN(c2ccc(-c3n[nH]c4ccc(NC(=O)C(c5ccsc5)N5CCCC5)cc34)cc2)C(=O)C1 (centres unmarked) [Example A94, N-(3-(4-(4-Methyl-2-oxopiperazin-1-yl)phenyl)-1H-indazol-5-yl)-2-(pyrrolidin-1-yl)-2-(thiophen-3-yl)acetamide]
 | 100 to 500 | 100 to 500 | CC(C)(O)C1CCN(c2ccc(-c3n[nH]c4ccc(C(=O)NC(c5ccccc5)C5CC5)cc34)cc2)CC1 (centres unmarked) [Example A112, N-(cyclopropyl(phenyl)methyl)-3-(4-(4-(2-hydroxypropan-2-yl)piperidin-1-yl)phenyl)-1H-indazole-5-carboxamide]
 | < 100 | < 100 | CN1CCC(Oc2ccc(-c3n[nH]c4ccc(NC(=O)C(c5ccsc5)N5CCCC5)cc34)cc2N(C)C)CC1 (centres unmarked) [Example A113, N-(3-(3-(dimethylamino)-4-((1-methylpiperidin-4-yl)oxy)phenyl)-1H-indazol-5-yl)-2-(pyrrolidin-1-yl)-2-(thiophen-3-yl)acetamide]

Continued, molecule first:

Structure (SMILES) | IC50 [1] [nM] | GI50 [2] [nM] | GI50 [3] [nM]
C[C@@H]1CC(CNC(=O)c2ccc3[nH]nc(-c4ccc(OC5CCN(C)CC5)cc4)c3c2)(N2CCOCC2)C[C@H](C)O1 (stereo partly drawn) [Example A475, N-(((2R,6S)-2,6-dimethyl-4-morpholinotetrahydro-2H-pyran-4-yl)methyl)-3-(4-((1-methylpiperidin-4-yl)oxy)phenyl)-1H-indazole-5-carboxamide] | 100 to 500 |  | 
O=C(NC(c1ccccc1)C1CC1)c1ccc2[nH]nc(-c3ccc(N4CCOCC4)nc3)c2c1 (centres unmarked) [Example A54, N-(cyclopropyl(phenyl)methyl)-3-(6-morpholinopyridin-3-yl)-1H-indazole-5-carboxamide] | < 100 | > 500 | 
O=C(NC(c1ccccc1)C1CC1)c1ccc2[nH]nc(-c3cccc(N4CCOCC4)c3)c2c1 (centres unmarked) [Example A61, N-(cyclopropyl(phenyl)methyl)-3-(3-morpholinophenyl)-1H-indazole-5-carboxamide] | 100 to 500 | > 500 | 
Cc1cc(-c2n[nH]c3ccc(C(=O)NC(c4ccccc4)C4CC4)cc23)ccc1N1CCOCC1 (centres unmarked) [Example A64, N-(cyclopropyl(phenyl)methyl)-3-(3-methyl-4-morpholinophenyl)-1H-indazole-5-carboxamide] | 100 to 500 | > 500 | 
C[C@@H]1C[C@H](Oc2ccc(-c3n[nH]c4ccc(C(=O)NCC5(N6CCOCC6)CCCC5)cc34)cc2)C[C@H](C)O1 [Example A430, (4-(((2R,4R,6S)-2,6-dimethyltetrahydro-2H-pyran-4-yl)oxy)phenyl)-N-((1-morpholinocyclopentyl)methyl)-1H-indazole-5-carboxamide] | 100 to 500 |  | 
O=C(NCC1(N2CCC(F)CC2)CCCCC1)c1ccc2[nH]nc(-c3ccc(N4CCOCC4)cc3)c2c1 [Example A456, N-((1-(4-fluoropiperidin-1-yl)cyclohexyl)methyl)-3-(4-morpholinophenyl)-1H-indazole-5-carboxamide] | 100 to 500 |  | 
CC(C)(C)C[C@H](NC(=O)c1ccc2[nH]nc(-c3ccc(N4CC(N5CCOCC5)C4)cc3)c2c1)c1ccccc1 [Example A520, (S)-N-(3,3-dimethyl-1-phenylbutyl)-3-(4-(3-morpholinoazetidin-1-yl)phenyl)-1H-indazole-5-carboxamide] | < 100 |  | 
CC(C)C[C@H](NC(=O)c1ccc2[nH]nc(-c3ccc(N4C5CCC4CC(O)C5)cc3)c2c1)c1ccccc1F (stereo partly drawn) [Example A518, N-((S)-1-(2-fluorophenyl)-3-methylbulyl)-3-(4-((1R,3S,5S)-3-hydroxy-8-azabicyclo[3.2.1]octan-8-yl)phenyl)-1H-indazole-5-carboxamide] | < 100 |  | 
O=C(NCC1(N2CCOCC2)CCCC1)c1ccc2[nH]nc(-c3ccc(OC4CCOCC4)cc3)c2c1 [Example A477, N-((1-morpholinocyclopentyl)methyl)-3-(4-((tetrahydro-2H-pyran-4-yl)oxy)phenyl)-1H-indazole-5-carboxamide] | 100 to 500 |  | 
O=C(NCC1(N2CCOCC2)CCCOC1)c1ccc2[nH]nc(-c3ccc(N4[C@@H]5CC[C@H]4C[C@H](O)C5)cc3)c2c1 (stereo partly drawn) [Example A516, 3-(4-((1R,3S,5S)-3-hydroxy-8-azabicyclo[3.2.1]octan-8-yl)phenyl)-N-((3-morpholinotetrahydro-2H-pyran-3-yl)methyl)-1H-indazole-5-carboxamide] | < 100 |  | 
O=C(NCC1(N2CCOCC2)CCCOC1)c1ccc2[nH]nc(-c3ccc(N4[C@@H]5CC[C@H]4COC5)cc3)c2c1 (stereo partly drawn) [Example A517, 3-(4-((1R,5S)-3-oxa-8-azabicyclo[3.2.1]octan-8-yl)phenyl)-N-((3-morpholinotetrahydro-2H-pyran-3-yl)methyl)-1H-indazole-5-carboxamide] | < 100 |  | 
O=C(NCC1(N2CCOCC2)CCCOC1)c1ccc2[nH]nc(-c3ccc(N4CCOCC4)cc3)c2c1 (centres unmarked) [Example A515, 3-(4-morpholinophenyl)-N-((3-morpholinotetrahydro-2H-pyran-3-yl)methyl)-1H-indazole-5-carboxamide] | < 100 |  | 
CN1CCC(Oc2ccc(-c3n[nH]c4ccc(C(=O)NCC5(N6CCOCC6)CCC5)cc34)cc2)CC1 [Example A479, 3-(4-((1-methylpiperidin-4-yl)oxy)phenyl)-N-((1-morpholinocyclobutyl)methyl)-1H-indazole-5-carboxamide] | 100 to 500 |  | 
O=C(NCC1(N2CCC(F)(F)CC2)CCCCC1)c1ccc2[nH]nc(-c3ccc(N4CCOCC4)cc3)c2c1 [Example A457, N-((1-(4,4-difluoropiperidin-1-yl)cyclohexyl)methyl)-3-(4-morpholinophenyl)-1H-indazole-5-carboxamide] | 100 to 500 |  | 
CN1CCC(Oc2ccc(-c3n[nH]c4ccc(C(=O)NCC5(CN6CCOCC6)CC5)cc34)cc2)CC1 [Example A498, 3-(4-((1-methylpiperidin-4-yl)oxy)phenyl)-N-((1-(morpholinomethyl)cyclopropyl)methyl)-1H-indazole-5-carboxamide] | 100 to 500 |  | 
CC(C)C[C@H](NC(=O)c1ccc2[nH]nc(-c3ccc(N4[C@@H]5CC[C@H]4COC5)cc3)c2c1)c1ccccc1F [Example A519, 3-(4-((1R,5S)-3-oxa-8-azabicyclo[3.2.1]octan-8-yl)phenyl)-N-((S)-1-(2-fluorophenyl)-3-methylbutyl)-1H-indazole-5-carboxamide] | < 100 |  | 
